Experimental data from patent US20240374631A1, “A COMPOSITION FOR IMPROVING GUT MICROBIOTA, BEHAVIOURAL PATTERN, ALPHA-SYNUCLEIN LEVELS, SLEEP PATTERN AND/OR SERUM MELATONIN” (GN Corporation Co Ltd, priority 2021, published 2024).

Tested on: gut microbiota
Assay: Gut microbiome analysis (16S rRNA sequencing of fecal samples) in STAM model of NASH
Format: in vivo, C57BL/6J mice
Description: The study is reported in accordance with Animal Research: Reporting of In Vivo Experiments (ARRIVE) guidelines. C57BL/6J mice were obtained from Japan SLC, Inc. (Japan). All animals used in this study were cared for under the following guidelines: Act on Welfare and Management of Animals (Ministry of the Environment, Japan, Act No. 105 of Oct. 1, 1973), standards relating to the care and management of laboratory animals and relief of pain (Notice No. 88 of the Ministry of the Environment, Japan, Apr. 28, 2006) and the guidelines for proper conduct of animal experiments (Science Council of Japan, Jun. 1, 2006). Protocol approvals were obtained from SMC Laboratories, Japan's IACUC (Study reference no: […] Mice were maintained in a specific pathogen-free (SPF) facility under controlled conditions of temperature (23±3° C.), humidity (50±20%), lighting (12-hour artificial light and dark cycles; light from 8:00 to 20:00) and air exchange. The STAM model of NASH was induced as previously described [D10]. Mice were given a single subcutaneous injection of 200 μg streptozotocin (STZ, Sigma-Aldrich, USA) solution 2 days after birth and fed with a high-fat diet (HFD, 57 kcal % fat, Cat #HFD32, CLEA Japan, Inc., Japan) from 4-9 weeks of age. All mice develop liver steatosis and diabetes and at […] mice had established steatohepatitis, histologically. Studygroups: There were five study groups, described below. Eight mice were included in each study group. Eight NASH mice were orally administered vehicle supplemented with AFO-202 Beta Glucan at a dose of 1 mg/kg in a volume of 5 mL/kg once daily from 6 to 9 weeks of age. Eight NASH mice were orally administered vehicle supplemented with Telmisartan at a dose of 10 mg/kg once daily from 6 to 9 weeks of age. Frequency: Fecal samples were collected at the 6 weeks of age (before administration) and 9 weeks of age (before sacrifice). Procedure: At 6 weeks of age, fecal samples were collected from each mouse by clean catch method. […] A sterile petri dish was placed on the bench. Gently massage the abdomen, position the bottom of mouse over a fresh petri dish, and collect 1-2 fecal pellets. At sacrifice, fecal samples were aseptically collected from cecum. The tubes with feces were placed on ice immediately. These tubes were snap frozen in liquid nitrogen and stored at -80° C. for shipping. In this analysis, the 16S rRNA sequence data acquired by the next-generation sequencer from the fecal […] was used to perform community analysis using the QIIME2 program for microbial community analysis. The raw read data in FASTQ format output from the next-generation sequencer was trimmed to remove adapter sequences and low QV regions that may be included in the data. Cutadapt was used to remove adapter sequences from DNA sequencing reads. Trimmomatic was used as read trimming tool for Illumina NGS data. The adapter sequence was trimmed using the adapter trimming program “cutadapt” if the Trimming of the region at the end of the read sequence overlapped the corresponding sequence by at least one base (mismatch tolerance: 20%). When reads containing N were present in at least one of Read1 and Read2, both Read1 and Read2 were removed. Trimming of low QV regions was performed on the read data after processing using the QV trimming program “Trimmomatic” under the following conditions. The window of 20 bases is slid from the 5' side, and the area where the average QV is less than 20 is trimmed. After trimming, only the reads with more than 50 bases remaining in both Read1 and Read2 were taken as output. The microbial community analysis based on 16S rRNA sequence was performed on the sequence data trimmed in the previous section using the microbial community analysis program “QIIME2”. The annotation program “sklearn” included in QIIME2 is used to annotate the ASV (OTU) sequences. […]

CCCc1nc2c(C)cc(-c3nc4ccccc4n3C)cc2n1Cc1ccc(-c2ccccc2C(=O)O)cc1 [Telmisartan]
Abundance: Family Methanobacteriaceae, Genus Methanobrevibacter, Species — (pre (baseline), table row r429): 0 | Abundance: Family Lachnospiraceae, Genus Other, Species Other (pre (baseline), table row r431): 12 | Abundance: Family Lachnospiraceae, Genus Dorea, Species — (pre (baseline), table row r432): 0 | Abundance: Family Lachnospiraceae, Genus Dorea, Species — (pre (baseline), table row r433): 7 | Abundance: Family Lachnospiraceae, Genus —, Species — (pre (baseline), table row r434): 11 | Abundance: Family Erysipelotrichaceae, Genus —, Species — (pre (baseline), table row r435): 0 | Abundance: Family Other, Genus Other, Species Other (pre (baseline), table row r437): 0 | Abundance: Family Ruminococcaceae, Genus Ruminococcus, Species — (pre (baseline), table row r438): 0 | Abundance: Family Lachnospiraceae, Genus Other, Species Other (pre (baseline), table row r439): 0 | Abundance: Family Erysipelotrichaceae, Genus Clostridum, Species cocleatum (pre (baseline), table row r440): 0 | Abundance: Family Clostridiaceae, Genus —, Species — (pre (baseline), table row r441): 10 | Abundance: Family S24-7, Genus —, Species — (pre (baseline), table row r442): 0 | Abundance: Family Ruminococcaceae, Genus Oscillospira, Species — (pre (baseline), table row r443): 0 | Abundance: Family Erysipelotrichaceae, Genus —, Species — (pre (baseline), table row r446): 0 | Abundance: Family Streptococcaceae, Genus —, Species — (pre (baseline), table row r447): 0 | Abundance: Family Erysipelotrichaceae, Genus —, Species — (pre (baseline), table row r448): 0 | Abundance: Family Turicibacteraceae, Genus Turicibacter, Species — (pre (baseline), table row r449): 0 | Abundance: Family S24-7, Genus —, Species — (pre (baseline), table row r450): 0 | Abundance: Family Ruminococcaceae, Genus Oscillospira, Species — (pre (baseline), table row r451): 0 | Abundance: Family Lachnospiraceae, Genus —, Species — (pre (baseline), table row r452): 0 | Abundance: Family Erysipelotrichaceae, Genus —, Species — (pre (baseline), table row r454): 0 | Abundance: Family Ruminococcaceae, Genus Ruminococcus, Species — (pre (baseline), table row r455): 0 | Abundance: Family Moraxellaceae, Genus Psychrobacter, Species Other (pre (baseline), table row r456): 0 | Abundance: Family Paenibacillaceae, Genus Other, Species Other (pre (baseline), table row r457): 0 | Abundance: Family Lachnospiraceae, Genus Coprococcus, Species — (pre (baseline), table row r458): 0 | Abundance: Family Bacillaceae, Genus Bacillus, Species — (pre (baseline), table row r459): 0 | Abundance: Family Enterococcaceae, Genus Vagococcus, Species — (pre (baseline), table row r460): 0 | Abundance: Family Lachnospiraceae, Genus —, Species — (pre (baseline), table row r462): 0 | Abundance: Family Ruminococcaceae, Genus Oscillospira, Species — (pre (baseline), table row r466): 0 | Abundance: Family Erysipelotrichaceae, Genus —, Species — (pre (baseline), table row r468): 4 | Abundance: Family Other, Genus Other, Species Other (pre (baseline), table row r469): 0 | Abundance: Family Clostridiaceae, Genus Clostridium, Species Other (pre (baseline), table row r470): 0 | Abundance: Family Ruminococcaceae, Genus —, Species — (pre (baseline), table row r473): 3 | Abundance: Family Deferribacteraceae, Genus Mucispirillum, Species schaedleri (pre (baseline), table row r474): 0 | Abundance: Family Turicibacteraceae, Genus Turicibacter, Species — (pre (baseline), table row r475): 0 | Abundance: Family [Mogibacteriaceae], Genus —, Species — (pre (baseline), table row r478): 0 | Abundance: Family Lachnospiraceae, Genus Dorea, Species longicateria (pre (baseline), table row r480): 2 | Abundance: Family Ruminococcaceae, Genus —, Species — (pre (baseline), table row r481): 0 | Abundance: Family Lachnospiraceae, Genus —, Species — (pre (baseline), table row r482): 0 | Abundance Erysipelotrichaceae/Allobaculum/— (pre, line r8): 6375 | Abundance Turicibacteraceae/Turicibacter/— (pre, line r9): 9408 | Abundance Desulfovibrionaceae/—/— (pre, line r10): 3882 | Abundance Clostridiaceae/Other/Other (pre, line r11): 7143 | Abundance Lactobacillaceae/Lactobacillus/— (pre, line r12): 416 | Abundance Streptococcaceae/Lactococeus/— (pre, line r13): 2239 | Abundance Bacteroidaceae/Bacteroides/— (pre, line r14): 1596 | Abundance [Paraprevotellaceae]/[Prevotella]/— (pre, line r15): 1674 | Abundance —/—/— (pre, line r16): 1552 | Abundance Deferribacteraceae/Mucispirillum/schaedleri (pre, line r17): 4795 | Abundance Bacteroidaceae/Bacteroides/acidifaciens (pre, line r18): 983 | Abundance —/—/— (pre, line r19): 853 | Abundance Verrucomicrobiaceae/Akkermansia/muciniphila (pre, line r20): 2305 | Abundance Rikenellaceae/—/— (pre, line r21): 696 | Abundance Enterobacteriaceae/Other/Other (pre, line r22): 17 | Abundance Lactobacillaceae/Lactobacillus/— (pre, line r23): 883 | Abundance S24-7/—/— (pre, line r24): 623 | Abundance Lachnospiraceae/—/— (pre, line r25): 752 | Abundance Peptostreptocpccaceae/—/— (pre, line r26): 1121 | Abundance Lachnospiraceae/[Ruminococcus]/gnavus (pre, line r27): 2041 | Abundance Lachnospiraceae/Coprococeus/— (pre, line r28): 444 | Abundance Bifidobacteriaceae/Bifidobacterium/pseudolongum (pre, line r29): 1317 | Abundance Enterobacteriaceae/Proteus/— (pre, line r30): 0 | Abundance Lactobacillaceae/Lactobacillus/Other (pre, line r31): 64 | Abundance S24-7/—/— (pre, line r32): 740 | Abundance Porphyromonadaceae/Parabacteroides/distasonis (pre, line r33): 320 | Abundance Clostridiaceae/—/— (pre, line r34): 1242 | Abundance —/—/— (pre, line r35): 420 | Abundance Desulfovibrionaceae/Desulfovibrio/— (pre, line r36): 65 | Abundance S24-7/—/— (pre, line r37): 708 | Abundance Coriobacteriaceae/Adlercreutzia/— (pre, line r38): 625 | Abundance S24-7/—/— (pre, line r39): 480 | Abundance Erysipelotrichaceae/Clostridium/cocleatum (pre, line r40): 319 | Abundance Ruminococcaceae/Ruminococcus/— (pre, line r41): 1164 | Abundance Lachnospiraceae/Other/Other (pre, line r43): 481 | Abundance Lachnospiraceae/[Ruminococcus]/gnavus (pre, line r44): 311 | Abundance Turicibacteraceae/Turicibacter/— (pre, line r45): 586 | Abundance Lachnospiraceae/—/— (pre, line r46): 611 | Abundance Bacteroidaceae/Bacteroides/— (pre, line r47): 460 | Abundance Ruminococcaceae/Oscillospira/— (pre, line r48): 293 | Abundance Lachnospiraceae/Roseburia/— (pre, line r50): 488 | Abundance Lachnospiraceae/—/— (pre, line r51): 338 | Abundance S24-7/—/— (pre, line r52): 305 | Abundance Lachnospiraceae/[Ruminococcus]/gnavus (pre, line r53): 123 | Abundance Lachnospiraceae/Coprococcus/— (pre, line r56): 126 | Abundance S24-7/—/— (pre, line r57): 322 | Abundance S24-7/—/— (pre, line r58): 237 | Abundance Lachnospiraceae/Other/Other (pre, line r60): 562 | Abundance Lachnospiraceae/[Ruminococcus]/gnavus (pre, line r61): 375 | Abundance Erysipelotrichaceae/Allobaculum/— (pre, line r62): 286 | Abundance Desulfovibrionaceae/Desulfovibrio/C21_c20 (pre, line r63): 604 | Abundance S24-7/—/— (pre, line r64): 383 | Abundance Streptococcaceae/Lactococcus/garvieae (pre, line r66): 11 | Abundance Enterobacteriaceae/Proteus/— (pre, line r68): 0 | Abundance Lachnospiraceae/—/— (pre, line r69): 44 | Abundance S24-7/—/— (pre, line r70): 399 | Abundance Lachnospiraceae/[Ruminococcus]/gnavus (pre, line r71): 278 | Abundance Clostridiaceae/Clostridium/Other (pre, line r73): 707 | Abundance Lachnospiraceae/—/— (pre, line r74): 0 | Abundance Clostridiaceae/Other/Other (pre, line r75): 215 | Abundance Clostridiaceae/Other/Other (pre, line r77): 255 | Abundance S24-7/—/— (pre, line r78): 196 | Abundance Lachnospiraceae/[Ruminococcus]/gnavus (pre, line r79): 601 | Abundance Bacteroidaceae/Bacteroides/— (pre, line r80): 170
